pIC50: −log10 of the molar value. Some results are limits rather than exact numbers.

One data set concerns the target CYP46A1 (Homo sapiens, UniProt Q9Y6A2). The experiment in a line: CYP46A1 Enzyme Assay 2 (testosterone substrate, HPLC-MS). It counts as biochemical. The following applies: read-out: IC50 (CYP46A1 inhibitory activity). In short, it runs like this: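 CYP46A1 (5 μM final) with testosterone ([…] final) preincubated with compound 30 min at 37° C, reaction started with NADPH-generating system and run 15 min at 37° C. Quenched in methanol containing diclofenac internal standard; product read by HPLC-MS.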

Data set [1] in a line: Compound stability in cryopreserved human hepatocytes. The format is in vitro ADME. To be noted: pooled cryopreserved human hepatocytes, read-out: Human Hep Clint. The method, then: Pooled cryopreserved human hepatocytes from 10 donors were obtained from BioreclamationIVT (Cat No. X008001, Lot MMN). Test compounds (20 μL of 1 mM stock solution in DMSO) and control compounds 7-ethoxycoumarin and 7-hydroxycoumarin (20 μL of 3 mM stock solutions in DMSO) were diluted with 380 μL of 45% MeOH/H2O to obtain 50 μM solutions of test compound and 150 μM solutions of control compounds. Then 50 μL of these respective solutions were mixed with 450 μL of pre-warmed Williams' Medium E to obtain 5 μM test compound and 15 μM control compound solutions; and in duplicate 10 μL of these solutions were added to appropriate wells in a 96-well plate corresponding to incubation times T0, T15, T30, T60 and T90 and kept at 37° C. Cryopreserved human hepatocytes were thawed, isolated and suspended in Williams' Medium E, then diluted with pre-warmed William' Medium E to a concentration of 0.625×10^6 cells/mL. The reaction was started by aliquoting 40 μL of the hepatocytes into the 96-well plates containing 10 μL of the test and control compounds and incubated at 37° C. with 5% CO2. Stop solution (acetonitrile containing 200 ng/mL tolbutamide and labetalol as internal standards) was added at the requisite time (15, 30, 60, or 90 minutes). Hepatocytes were not added to the T0 samples, which were rather directly treated with stop solution. Medium control (MC) sample plates (T0-MC and T90-MC) were incubated in identical fashion as for the test samples, but without addition of hepatocytes and stop solution was added at the requisite times. The plates were vortexed immediately after addition of stop solution and placed on a plate shaker at 500 rpm for 10 min, then centrifuged at 3220×g for 20 min. The supernatants were transferred to 96-deep-well plates, sealed and stored at 4° C. until LC-MS-MS analysis. The concentration of compound remaining was determined by LC-MS-MS and plotted versus time. […]
Cutoff values determined by the hepatocyte stability assay are in Table 2 below: […]

Another data set has as its system P-gp (MDR1). The experiment in a line: Compound permeability and efflux across a MDCK-MDR1 cellular membrane. The format is in vitro ADME, canine. To be noted: dog, pH 7.4, MDCK-MDR1 cell monolayer. The method, then:
MDR1-MDCKII cells (obtained from Piet Borst at the Netherlands Cancer Institute) were seeded onto […] (PET) in 96-well BD insert systems at 2.5×10^5 cells/mL and grown for 4-7 days until confluent cell monolayer formation.
Transport buffer for test compound was HBSS with 10 mM Hepes (pH 7.4±0.05) with or without 1% BSA and with or without GF120918. Transport buffer for reference compound was HBSS with 10 mM Hepes (pH 7.4±0.05) with or without GF120918. Test and reference compounds (digoxin, nadolol and metoprolol) were diluted with transport buffer from stock solution to a concentration of 2 μM (DMSO<1%) and applied to the apical or basolateral side of the cell monolayer. Permeation of the test compounds from A to B direction or B to A direction was determined in triplicate with and without P-gp inhibitor (GF120918, 10 μM). Digoxin was tested at 10 μM in the presence or absence of 10 μM GF120918 bi-directionally as well, while nadolol and metoprolol were tested at 2 μM in the absence of GF120918 in A to B direction in duplicate. The plate was incubated for 2.5 h in a CO2 incubator at 37±1° C., with 5% CO2 at saturated humidity without shaking. Test and reference compounds were quantified by LC/MS/MS analysis based on the peak area ratio of analyte/IS.
Six wells per 96-well plate were selected for the lucifer yellow rejection assay to determine the cell monolayer integrity. Thus, 75 μL of 100 μM lucifer yellow in transport buffer and 250 μL transport buffer were added to apical and basolateral chambers, respectively. The plate was incubated for 150 min at 37° C. with 5% CO2 and 95% relative humidity without shaking. After 150 minutes incubation, 20 μL of lucifer yellow samples were taken from the apical sides, followed by the addition of 60 μL of Transport Buffer, and then 80 μL of lucifer yellow samples were taken from the basolateral sides. The relative fluorescence unit (RFU) of lucifer yellow was measured at 425/528 nm (excitation/emission) with a Envision plate reader.
The apparent permeability coefficient Papp (cm/s) was calculated using the equation: […]
wherein dCr/dt is the cumulative concentration of compound in the receiver chamber as a function of time (μM/s); Vr is the solution volume in the receiver chamber (0.075 mL on the apical side, 0.25 mL on the basolateral side); A is the surface area for the transport, i.e. 0.0804 cm^2 for the area of the monolayer; C0 is the initial concentration in the donor chamber (μM).
The efflux ratio was calculated using the equation:
Efflux Ratio=Papp(BA)/Papp(AB)

A short description of the next data set: Mouse pharmacokinetics. It counts as in vivo. The following applies: 30 mg/kg PO. The method, then: Compound A6 was evaluated in a mouse pharmacokinetics (PK) study. The compound was dosed at 30 mg/kg PO to 3 male CD-1 mice, formulated as a solution in 30% hydroxypropyl beta-cyclodextran, with a dosing volume of 5 ml/kg. Plasma samples were collected at 0.25, 0.50, 1.0, 2.0, 4.0, 8.0 and 24 h post-dose. In 2 separate groups with 3 mice/group, Compound A6 was dosed at 30 mg/kg, PO and plasma and brain samples were collected at 0.5 and 2.0 h post-dose. […] The brain to plasma ratio at 0.25 and 2.0 h was 0.39 and 0.41, respectively.

Chain of CYP46A1 (Q9Y6A2 whole entry): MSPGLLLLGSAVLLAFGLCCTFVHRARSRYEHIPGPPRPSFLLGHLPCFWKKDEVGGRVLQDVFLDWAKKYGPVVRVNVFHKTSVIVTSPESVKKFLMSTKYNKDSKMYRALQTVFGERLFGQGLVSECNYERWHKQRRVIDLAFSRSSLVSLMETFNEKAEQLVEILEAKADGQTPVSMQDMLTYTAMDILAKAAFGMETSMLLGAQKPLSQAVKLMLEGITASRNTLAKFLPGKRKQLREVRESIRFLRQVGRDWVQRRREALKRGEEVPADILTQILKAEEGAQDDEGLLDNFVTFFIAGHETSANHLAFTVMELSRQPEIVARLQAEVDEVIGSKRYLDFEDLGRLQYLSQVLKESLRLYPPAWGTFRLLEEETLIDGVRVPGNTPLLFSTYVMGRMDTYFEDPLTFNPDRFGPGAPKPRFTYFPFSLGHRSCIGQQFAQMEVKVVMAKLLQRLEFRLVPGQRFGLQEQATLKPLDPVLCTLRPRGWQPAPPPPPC

As to `N#CC1(Cc2ccc(F)cc2)CCN(C(=O)c2cccnc2-c2ccncn2)CC1` [Compound A6, 4-(4-fluorobenzyl)-1-(2-(pyrimidin-4-yl)nicotinoyl)piperidine-4-carbonitrile], the pIC50 on CYP46A1 is above 7.00. Also, the CLint scaled at 1 µM in data set [1] is below 18 mL/min/kg. This compound also gave a Papp A→B at 2.5 h, 2 µM with P-gp (MDR1) (A to B) of 22 ×10⁻⁶ cm/s. Besides, in the data set on P-gp (MDR1) (read-out: MDCK Effux Ratio (B:A/A:B)), the efflux ratio at 2.5 h, 2 μM is 1.4. In addition, in “Mouse pharmacokinetics” (CD-1, mouse, brain and plasma, mice, at 0.25 h, read-out: brain to plasma ratio), the Kp at 0.25 h was found to be 0.39. Further, the Kp at 2 h in the data set “Mouse pharmacokinetics” (CD-1, mouse, brain and plasma, mice, at 2.0 h, read-out: brain to plasma ratio) turned out to be 0.41. In “Mouse pharmacokinetics” (mouse, male CD-1 mice, plasma), this compound showed an AUC of 14400 ng·h/mL, a Cmax of 10700 ng/mL and a half-life of 57.6 min.

(Values after US20220332699A1 (SAGE THERAPEUTICS, INC., priority 2019, published 2022).)
